Source: patent publication US20210275692A1, “SOLUTION COMPRISING FLUORESCENT DYE AS FIDUCIAL MARKER” (DANMARKS TEKNISKE UNIVERSITET, priority 2018, published 2021)

What was measured:
[1] = UVvis maximum absorption wavelength of selected dyes (Table 1); assay type: physicochemical; details: source not stated
[2] = Spectroscopic characterization of SSIB-Cy7.5 in SAIB or LOIB markers; assay type: physicochemical

Compound | UVvis maximum [1] | other results
CCCCOc1ccc(OCCCC)c2c1-c1nc3nc(nc4[nH]c([nH]c5nc(nc-2n1)-c1c(OCCCC)ccc(OCCCC)c1-5)c1c(OCCCC)ccc(OCCCC)c41)-c1c(OCCCC)ccc(OCCCC)c1-3 [1,4,8,11,15,18,22,25-Octabutoxy-29H,31H-phthalocyanine] | 762 nm | 
CCCCCCCCOc1cc2c(cc1OCCCCCCCC)-c1nc-2nc2[nH]c(nc3nc(nc4[nH]c(n1)c1cc(OCCCCCCCC)c(OCCCCCCCC)cc41)-c1cc(OCCCCCCCC)c(OCCCCCCCC)cc1-3)c1cc(OCCCCCCCC)c(OCCCCCCCC)cc21 [2,3,9,10,16,17,23,24-Octakis(octyloxy)-29H,31H-phthalocyanine] | 701 nm | 
2,11,20,29-Tetra-tert-butyl-2,3-naphthalocyanine | 712 nm | 
CC(C)(C)c1ccc2c(c1)-c1nc3nc(nc4[nH]c(nc5[nH]c(nc-2n1)c1cc(C(C)(C)C)ccc51)c1cc(C(C)(C)C)ccc41)-c1ccc(C(C)(C)C)cc1-3 [2,9,16,23-Tetra-tert-butyl-29H,31H-phthalocyanine] | 696 nm | 
6′-(Cyanine 7.5)-Isobutyric Sucrose [SSIB-Cy7.5] |  | broad emission peak centre ([2]; 0.01% w/w in LOIB:xSAIB:EtOH:D&Cv2): 845 nm; dye concentration up to which emission intensity increased (then self-quenching) ([2]; SAIB:xSAIB:EtOH 70:10:20): 0.003 % w/w
CCC1=C(CC)c2cc3[nH]c(cc4nc(cc5[nH]c(cc1n2)c(CC)c5CC)C(CC)=C4CC)c(CC)c3CC [2,3,7,8,12,13,17,18-Octaethyl-21H,23H-porphine] | 401 nm | 
C1=Cc2nc1c(-c1ccccc1)c1ccc([nH]1)c(-c1ccccc1)c1nc(c(-c3ccccc3)c3ccc([nH]3)c2-c2ccccc2)C=C1 [5,10,15,20-Tetraphenyl-21H,23H-porphine] | 514 nm | 
CCCCOc1c2c(c(OCCCC)c3ccccc13)-c1nc-2nc2[nH]c(nc3nc(nc4[nH]c(n1)c1c(OCCCC)c5ccccc5c(OCCCC)c41)-c1c-3c(OCCCC)c3ccccc3c1OCCCC)c1c(OCCCC)c3ccccc3c(OCCCC)c21 [5,9,14,18,23,27,32,36-Octabutoxy-2,3-naphthalocyanine] | 784 nm | 
Cc1ccc(Nc2ccc(O)c3c2C(=O)c2ccccc2C3=O)cc1 [D&Cv2] |  | absorption peak ([2]; UVvis in LOIB:xSAIB:EtOH:D&Cv2, 0.1% w/w D&Cv2, 0.01% w/w SSIB-Cy7.5): 590 nm

Now from value to compound, other results behind:

UVvis maximum [1] | Compound | other results
684 nm | C#CCNC(=O)CCCCCN1C(=CC=CC=CC2=[N+](C)c3ccc4ccccc4c3C2(C)C)C(C)(C)c2c1ccc1ccccc21.[Cl-] [Cy5.5-alkyne] | 
750 nm | Cy7-alkyne | 
698 nm | c1ccc2c(c1)-c1nc-2nc2[nH]c(nc3nc(nc4[nH]c(n1)c1ccccc41)-c1ccccc1-3)c1ccccc21 [Phthalocyanine] | 
646 nm | C#CCNC(=O)CCCCCN1C(=CC=CC=CC2=[N+](C)c3ccccc3C2(C)C)C(C)(C)c2ccccc21.[Cl-] [Cy5-alkyne] | 
788 nm | C#CCNC(=O)CCCCCN1/C(=C/C=C2C=C(/C=C/C3=[N+](C)c4ccc5ccccc5c4C3(C)C)CCC/2)C(C)(C)c2c1ccc1ccccc21.[Cl-] [Cy7.5-alkyne] | 
